Assay results from patent publication US9175028B2, “Glycoside compound” (AJINOMOTO CO., INC., priority 2010, dated 2015).
Entries after “also recorded” stand apart in the source; their conditions may differ.

Legend:
[1] = test system: human colorectal cancer-derived cell line NCI-H716; experiment: GLP-1 secretion, GLP-1 concentration in supernatant by ELISA; format: cell-based; conditions: for GLP-1 concentration in the supernatant compared to the DMSO treatment (control) group: 60 minutes, result in words (FIGS. 1-11); for fold induction at 100 µM / fold induction at 300 µM: Homo sapiens, NCI-H716, 1 h, GLP-1 concentration in supernatant against control group (0.1% DMSO) as 1, 60 minutes
Method: Subcultured human colorectal cancer-derived cell line NCI-H716 (ATCC) was plated on a poly-D-lysine coated 96-well plate at 1×10^5 cells per well. After culture at 37° C., 5% CO2 for 48 hours, the medium was substituted with a buffer (146 mM NaCl, 5 mM KCl, 1 mM MgSO4, 5.5 mM Glucose, 20 mM HEPES, 1.5 mM CaCl2, 0.2% BSA, pH 7.4), and dihydrocapsiate (DCT), dihydrocapsiate glycoside and structural analogs thereof (compounds 4, 12, 47, 27, 20, 18, 16, 30, 32, 32-3, 34, 35, 36, 24-2, 33, 14, 22, 23 and 24), each prepared to a given concentration with dimethyl sulfoxide (DMSO), were added. After treatment at 37° C., 5% CO2 for 60 minutes, the supernatant was recovered, and the concentration of GLP-1 in the supernatant was measured by the ELISA method. The strength of the activity of each compound is expressed against GLP-1 concentration of the control group (0.1% DMSO treatment group) as 1, and the compound showing higher GLP-1 concentration than the control group was evaluated as active.

C57BL/6J mice = experiment: food ingestion calories of mice fed test diets for 56 days; format: in vivo; conditions: 0.459% (w/w) in high-fat diet, mouse, compared to normal diet, high-fat diet alone or high-fat diet added with DCT, result in words, listed as glycoside DCT
Method: Glycoside DCT was added at a proportion of 0.459% (w/w) to AIN-93 composition diet containing 30% lard (to be abbreviated as glycoside DCT diet or glycoside diet), and fed to mouse. […] As a control, AIN-93 composition diet containing 7% lard (to be abbreviated as normal diet), AIN-93 composition diet containing 30% lard (to be abbreviated as high-fat diet), and high-fat diet containing 0.3% (w/w) dihydrocapsiate (DCT) (to be abbreviated as DCT diet) were fed to the mouse.
The details of the test method are shown below. 7-week-old male C57BL/6J mice (n=46) (Charles River Laboratories) were acclimated for 2 weeks, divided into 4 groups such that they have the same average body weight, and each group was allowed to freely ingest a food having the composition shown in Table 2 for 56 days. The body weight and the food ingestion amount were measured every 3-4 days.

[2] = test system: human colorectal cancer-derived cell line NCI-H716; experiment: GLP-1 secretion, GLP-1 concentration in supernatant by ELISA; format: cell-based; conditions: result in words (FIG. 2)

Row | SMILES | GLP-1 concentration in the supernatant compared to the DMSO treatment (control) group [1] | fold induction at 100 µM [1] | fold induction at 300 µM [1] | total ingested calories during the test period (C57BL/6J mice) | GLP-1 concentration compared to the group treated with equimolar concentration of glucose or cellobiose [2]
1 | COc1cc(COC(=O)CCCCCC(C)C)ccc1OC1OC(CO)C(O)C(O)C1O [compound 18, O-[4-(β-D-glucopyranosyloxy)-3-methoxybenzyl]-7-methyloctanoic acid ester] | increased | 1.33 | 1.85 |  | 
2 | CCCCCCCCCC(=O)OCc1ccc(OC2OC(CO)C(O)C(O)C2O)c(OC)c1 [compound 16, O-[4-(β-D-glucopyranosyloxy)-3-methoxybenzyl]-decanoic acid ester] | increased | 1.23 | 3.25 |  | 
3 | COc1cccc(COC(=O)CCCCCCC(C)C)c1OC1OC(COC(C)=O)C(OC2OC(COC(C)=O)C(OC(C)=O)C(OC(C)=O)C2OC(C)=O)C(OC(C)=O)C1OC(C)=O (centres unmarked) [compound 24-2] | increased | 0.87 | 1.15 |  | 
4 | COc1cc(CNC(=O)CCCCCCC(C)C)ccc1O[C@@H]1O[C@H](CO)[C@@H](O[C@@H]2O[C@H](CO)[C@@H](O)[C@H](O)[C@H]2O)[C@H](O)[C@H]1O [compound 27, N-[4-(β-D-glucopyranosyl-(1→4)-β-D-glucopyranosyloxy)-3-methoxybenzyl]-8-methylnonanamide, reference compound] | did not show GLP-1 secretion promoting activity | 0.66 | 0.71 |  | 
5 | COc1ccc(COC(=O)CCCCCCC(C)C)cc1OC1OC(CO)C(O)C(O)C1O [compound 34, O-[3-(β-D-glucopyranosyloxy)-4-methoxybenzyl]-8-methylnonanoic acid ester] | increased | 1.29 | 1.94 |  | 
6 | COc1cccc(COC(=O)CCCCCCC(C)C)c1OC1OC(CO)C(OC2OC(CO)C(O)C(O)C2O)C(O)C1O [compound 24, O-[2-(β-D-glucopyranosyl-(1→4)-β-D-glucopyranosyloxy)-3-methoxybenzyl]-8-methylnonanoic acid ester] | increased | 1.33 | 9.5 |  | 
7 | COc1cc(COC(=O)CCCC/C=C/C(C)C)ccc1OC1OC(CO)C(OC2OC(CO)C(O)C(O)C2O)C(O)C1O [compound 35, O-[4-(β-D-glucopyranosyl-(1→4)-β-D-glucopyranosyloxy)-3-methoxybenzyl]-8-methyl-6-nonenoic acid ester] | increased | 1.14 | 2.4 |  | 
8 | COc1cc(CO)ccc1O[C@@H]1O[C@H](CO)[C@@H](O[C@@H]2O[C@H](CO)[C@@H](O)[C@H](O)[C@H]2O)[C@H](O)[C@H]1O [compound 14, 4-(β-D-glucopyranosyl-(1→4)-β-D-glucopyranosyloxy)-3-methoxybenzyl alcohol] | increased | 1.07 | 1.12 |  | 
9 | COc1cc(CNC(=O)CCCCCCC(C)C)ccc1O[C@@H]1O[C@H](CO)[C@@H](O)[C@H](O)[C@H]1O [compound 47, N-[4-(β-D-glucopyranosyloxy)-3-methoxybenzyl]-8-methylnonanamide, reference compound] | did not show GLP-1 secretion promoting activity | 0.61 | 0.78 |  | 
10 | COc1cc(COC(=O)CCCCCCC(C)C)ccc1O [DCT, dihydrocapsiate, reference compound] | did not show a similar change |  |  |  | 
11 | COc1cc(COC(=O)CCCCCCC(C)C)ccc1OC1OC(CO)C(O)C(O)C1O [compound 4, O-[4-(β-D-glucopyranosyloxy)-3-methoxybenzyl]-8-methylnonanoic acid ester] | increased in a compound concentration-dependent manner | 2.3 |  | suppress food ingestion calories; also recorded: significant decrease | markedly high
12 | COc1cc(COC(=O)CCCCCC(C)C)ccc1OC1OC(CO)C(OC2OC(CO)C(O)C(O)C2O)C(O)C1O [compound 36, O-[4-(β-D-glucopyranosyl-(1→4)-β-D-glucopyranosyloxy)-3-methoxybenzyl]-7-methyloctanoic acid ester] | increased | 1.19 | 2.41 |  | 
13 | COc1cc(COC(=O)CCCCCCC(C)C)ccc1OC1OC(CO)C(OC2OC(CO)C(O)C(O)C2O)C(O)C1O [compound 12, O-[4-(β-D-glucopyranosyl-(1→4)-β-D-glucopyranosyloxy)-3-methoxybenzyl]-8-methylnonanoic acid ester] | increased in a compound concentration-dependent manner | 5.02 |  |  | markedly high
14 | COc1cc(CCC(=O)OCCCCCCCC(C)C)ccc1OC1OC(CO)C(OC2OC(CO)C(O)C(O)C2O)C(O)C1O [compound 32, O-8-methylnonyl-3-[4-(β-D-glucopyranosyl-(1→4)-β-D-glucopyranosyloxy)-3-methoxyphenyl]propionic acid ester] | increased | 1.24 | 3.46 |  | 
15 | COc1cc(CC(=O)OCCCCCCCC(C)C)ccc1OC1OC(CO)C(OC2OC(CO)C(O)C(O)C2O)C(O)C1O [compound 22, O-8-methylnonyl-2-[4-(β-D-glucopyranosyl-(1→4)-β-D-glucopyranosyloxy)-3-methoxyphenyl]acetic acid ester] | increased | 1.87 | 1.66 |  | 
16 | COc1cc(CCOC(=O)CCCCCCC(C)C)ccc1OC1OC(CO)C(OC2OC(CO)C(O)C(O)C2O)C(O)C1O [compound 23, O-[4-(β-D-glucopyranosyl-(1→4)-β-D-glucopyranosyloxy)-3-methoxyphenethyl]-8-methylnonanoic acid ester] | increased | 1.37 | 10.3 |  | 
17 | COc1cc(CCC(=O)OCCCCCCCC(C)C)ccc1OC1OC(CO)C(O)C(O)C1O [compound 30, O-8-methylnonyl-3-[4-(β-D-glucopyranosyloxy)-3-methoxyphenyl]propionic acid ester] | increased | 0.93 | 2.6 |  | 
18 | COc1cc(COC(=O)CCCC/C=C/C(C)C)ccc1OC1OC(CO)C(O)C(O)C1O [compound 20, O-[4-(β-D-glucopyranosyloxy)-3-methoxybenzyl]-8-methyl-6-nonenoic acid ester] | increased | 1.13 | 1.56 |  | 
